# From patent publication US4196217A, “Hydroxylated amines with bacteriostatic activity” (priority 1978, dated 1980)
# Where two headings read alike, the source gives them in different places.
# Assays:
# [1] = test system: Serratia; assay: bacteriostatic activity (MIC), Serratia; format: cell-based; conditions: Serratia, 48 h, Table I, 37° C., read-out: MIC
# Description: (§1) The medium containing the solution to be tested is inoculated in the form of three single striae with a 10^-5 times dilution of a bacterial culture aged 16 to 18 hours grown in salted peptone broth at a temperature of 37° C. After inoculation, the media are stored at 37° C. for 48 hours, after which the bacterial growth is inspected. The MIC (minimum inhibiting concentrations) are expressed in micrograms of pure product per cubic centimeter of gelose medium required for inhibiting the culture (μg/cc). The control substance used is benzalconium chloride.
# [2] = test system: Proteus vulgaris; assay: bacteriostatic activity (MIC), Proteus vulgaris; format: cell-based; conditions: Proteus vulgaris, 48 h, Table I, 37° C., read-out: MIC
# Description: as §1
# [3] = test system: Moraxella glucidolytica; assay: bacteriostatic activity (MIC), Moraxella glucidolytica; format: cell-based; conditions: Moraxella, 48 h, Table I, 37° C., read-out: MIC
# Description: as §1
# [4] = test system: Pseudomonas aeruginosa; assay: bactericidal activity, Pseudomonas aeruginosa; format: cell-based; conditions: Table II, 2 hours contact, laboratory temperature, read-out: MIC (bactericidal activity)
# Description: Bactericidal activity is determined by the following methods: A titrate suspension of bacteria is brought into contact over a period of 2 hours at the temperature of the laboratory with increasing dilutions of the test product. The number of bacteria still alive are counted after passage through a filtering membrane.
# [5] = test system: spores of B. subtilis var. Niger; assay: sporostatic activity (b), porous membrane with rinses; format: cell-based
# Source text: (b) A porous membrane 0.45μ thick is placed aseptically in a sterile filter support, covered with 10 cc of sterile distilled water containing 1 cc of mother solution of the product, followed by the addition of 1 cc of a suspension of spores of B. subtilis var. Niger containing approximately 40 spores. These liquids are drawn through the membrane, after which the membrane is transferred aseptically to a culture medium and placed in an oven. The operation is recommenced using up to 5 rinses of the membrane per 10 cc of sterile distilled water. The number of colonies developing is then determined.
# [6] = ocular irritation; format: in vivo; conditions: 0.1 ml of a 0.5% solution
# Description: The method used is the method described in the Official Journal of Apr. 21, 1971, page 3863, and comprises applying to the right eye of each animal 0.1 ml of a 0.5% solution. The general total of the results is 0 which confirms the high tolerance of the product mentioned above.
# [7] = aggressiveness to the skin by repeated application; format: in vivo
# Source text: The method used is the method described in the Official Journal of Apr. 28, 1971 for the analysis of cosmetics and beauty products, and comprises applying 0.5 cc of 2% solution over a period of 1 month to the two zones treated, one normal, the other raw, a control zone being reserved on the hindquarters of the animal.
structure (smiles),measurement,setting,value
"CCCCCCCCCCOCC(O)CN.Cl (centres unmarked) [Compound 1, 3-decyloxy-2-hydroxy-1-aminopropane hydrochloride]",MIC,[1]; with 20% of serum,75 µg/mL
same,MIC,[1]; without serum,20 µg/mL
same,MIC,[2]; with 20% of serum,150 µg/mL
same,MIC,[2]; without serum,40 µg/mL
same,MIC,[3]; with 20% of serum,75 µg/mL
same,MIC,[3]; without serum,40 µg/mL
same,MBC,[4],50 µg/mL
same,number of colonies (No = 37),[5]; 0 rinses of the membrane,3
same,number of colonies (No = 37),[5]; 1 rinse of the membrane,4
same,number of colonies (No = 37),[5]; 2 rinses of the membrane,35
same,number of colonies (No = 37),[5]; 3 rinses of the membrane,38
same,number of colonies (No = 37),[5]; 4 rinses of the membrane,48
same,number of colonies (No = 37),[5]; 5 rinses of the membrane,55
same,"ocular irritation, general total of the results",[6],0
same,histological examination of skin,[7]; 0.5 cc of 2% solution over 1 month,did not reveal any significant modification
same,local tolerance (skin),"[7]; 0.5 cc of 2% solution over 1 month, normal and raw zones",Good local tolerance
same,haematological examination,[7]; blood from the ear vein on completion of the test,normal blood formula
